[invAb] = inverted abasic unit; d = 2'-deoxy (DNA); m = 2'-O-methyl; r = 2'-OH (RNA); f = 2'-fluoro
Assays:
TSLP protein = experiment: TSLP ELISA in IL-1β/TNFα-stimulated NHLF cells; assay type: cell-based, human; details: relative to UC3 siRNA at matched concentration, siNA range 10 nM-0.00015 nM, concentration of the value not stated, mean ± s.d.
Procedure: In a 96-well plate, 57,500 NHLFcells/well were seeded in 100 uL of complete growth media and incubated overnight at 37° C. with 5% CO2. The cells were transfected with siNAs using RNAiMax (Invitrogen, Cat#13778-150); final concentration of siNAs is 10 nM-0.00015 nM. The amount of RNAiMax in each well is 0.3 uL. The siNAs were incubated for 6 hours. The medium was replaced with 95 uL of fresh complete growth medium and 5 uL/well of IL-1β/TNFα at 10 ng/ml final concentration was added. The cells were incubated for 24 hours. 95 uL of the medium from each well was collected into a separate 96-well plate. The samples were frozen immediately at −80° C. until ready the assay was ready to be performed.
ELISA was performed using DuoSet ELISA Development System (R&D systems, Cat # DY1398) according to the manufacturer's instructions. A seven point standard curve using 2-fold serial dilution in reagent diluent buffer and a high standard of 1000 pg/ml was used. The samples were not diluted. Absorbance was obtained at […] (LM1) and […] (LM2) and the difference (LM1-LM2) was recorded on a SpectraMax plate reader (Molecular Devices) within 30 minutes of stopping the reaction.
Various siNAs were also evaluated for their potential to knock-down TSLP protein using an ELISA assay. Six siNAs were tested in an TSLP ELISA assay across a range of concentrations of siNAs and the level of reduction of protein was determined relative to treatment of the cells with identical concentrations of the negative universal control siNA (UC3) (see Table 6).

TSLP mRNA [1] = experiment: Dose response curves of TSLP mRNA knock-down in NHLF cells; assay type: cell-based; details: human NHLF cells, mean ± s.d.; for IC50: TSLP mRNA knock-down, 12 concentrations from 0.083 fM to 30 nM; for Maximum % KD in DRC: 12 concentrations of siNA from 0.083 fM to 30 nM
Procedure: NHLF (human; Lonza cat# CC-2512): Cells were cultured at 37° C. in the presence of 5% CO2 and grown Fibroblast Basal Medium (Lonza cat# CC-3β2) supplemented growth factors (provided with the kit) and 100 μg/mL of streptomycin and 100 U/mL penicillin.
Dose response curves were carried out in a similar fashion in 96-well plates, while maintaining a constant amount of RNAiMax in each transfection.
RNA was extracted from a 96-well plate using the TaqMan® Gene Expression Cells-to-CT™ Kit (Cat# 4399002) with a modified protocol. Briefly, a 60 uL (1 plate) or 110 uL (2 plates) of the Lysis Solution with DNase I was dispensed into each well of the Lysis Buffer Plate (twin.tec full skirt plate). The lysis buffer and stop plates were stored at 4° C. until the cells were washed.
Each well of the reverse transcription plate required 10 uL of 2× reverse transcriptase Buffer, luL of 20× reverse transcription enzyme and 2 uL of nuclease-free water. The reverse transcription master mix was prepared by mixing 2× reverse transcription buffer, 20× reverse transcription enzyme mix, and nuclease-free water. 13 uL of the reverse transcription master mix was dispensed into each well of the reverse transcription plate (semi-skirted). A separate reverse transcription plate was prepared for each cell plate. The plate was loaded onto a Biomek NX or Biomek FX Dual-96 and the Biomek method was run. The program is programmed to automatically added 7 uL of lysate from the cell lysis procedure described above into each well of the reverse transcription plate. The plate is sealed and spun on a centrifuge (1000 rpm for 30 seconds) to settle the contents to the bottom of the reverse transcription plate. The plate is placed in a thermocycler at 37° C. for 60 min, 95° C. for 5 min, and 4° C. until the plate is removed from the thermocycler. Upon removal, if not used immediately, the plate was frozen at −20° C.
A series of probes and primers were used to detect the various mRNA transcripts of the genes of TSLP, IL-8 and GAPDH in human cell lines. All the Taqman probes and primers for the experiments here-in described were supplied as pre-validated sets by Applied Biosystems, Inc. (see Table 2). The assays were performed on an ABI 7900 instrument, according to the manufacturer's instructions.
A TaqMan Gene Expression Master Mix (provided in the Cells-to-CT™, Applied Biosystems, Cat #4399002) was used. The PCR reactions were carried out at 50° C. for 2 min, 95° C. for 20 min followed by 40 cycles at 95° C. for 15 secs and 60° C. for 1 min.
The expression level of the gene of interest and % knock-down was calculated using Comparative Ct method: […]
All calculations of IC50s were performed using SigmaPlot 10.0 software. The data were analyzed using the sigmoidal dose-response (variable slope) equation for simple ligand binding. In all of the calculations of the % knock-down, the calculation was made relative to the normalized level of expression of the gene of interest in the samples treated with the non-targeting control (Ctrl siNA) unless otherwise indicated.
Summary data, as to potency and efficacy for TSLP mRNA knock-down in human cells for certain siNA molecules, is presented in Table 5. Cells for the experiments were treated with 12 concentrations of siNA ranging from 0.083 fM to 30 nM. All of the data is presented as % knockdown of TSLP normalized against the expression of GAPDH mRNA expression level. Then the data was determined as a % knockdown relative to the non-targeting control siNA.

TSLP mRNA [2] = experiment: Initial screening: TSLP mRNA knock-down by RT-PCR (Taqman) after RNAiMax transfection of NHLF cells; assay type: cell-based; details: 10 nM siNA, human NHLF cells; for % KD TSLP: 24 hrs post-transfection, relative to non-targeting control, normalized to GAPDH, mean ± s.d. from 2 experiments; for % KD TSLP (10 nM): mean ± s.d. (Table 5)
mTSLP mRNA = experiment: Initial screening: mouse TSLP mRNA knock-down by RT-PCR (Taqman) after RNAiMax transfection of NIH 3T3 cells; assay type: cell-based; details: 10 nM siNA, 24 hrs post-transfection, mean ± s.d., summary from 2 screens

Substance | % Reduction TSLP Protein (TSLP protein) [%] | IC50 (TSLP mRNA [1]) [pM] | Maximum % KD in DRC (TSLP mRNA [1]) [%] | % KD TSLP (TSLP mRNA [2]) | % KD TSLP (10 nM) (TSLP mRNA [2]) [%] | % KD mTSLP NIH3T3 (mTSLP mRNA) [%]
25450-DC: siNA duplex: sense B AuuuuGuGAAcAcuuuuGA TTB (SEQ ID NO: 83), antisense UCAAAAGuGuucAcAAAAuUU (SEQ ID NO: 84) (sense AUUUUGUGAACACUUUUGATT; antisense UCAAAAGUGUUCACAAAAUUU; sense: DNA at AGT, 2'-fluoro at CU, [invAb] at 5' end, 3' end, backbone not given here; antisense: sugars from the 5' end rrrmmmmfmfffmfmmmmfmm, backbone not given here) | 44 ± 27.9 | 1.5 ± 0.3 | 75 ± 2 | 82 ± 9.8% | 82 ± 9.8 | 8.8 ± 11
25434-DC: siNA duplex: sense B GuGGuAuAuAcAAGuAGAu TTB (SEQ ID NO: 51), antisense AUCuAcuuGuAuAuAccAcUU (SEQ ID NO: 52) (sense GUGGUAUAUACAAGUAGAUTT; antisense AUCUACUUGUAUAUACCACUU; sense: DNA at AGT, 2'-fluoro at CU, [invAb] at 5' end, 3' end, backbone not given here; antisense: sugars from the 5' end rrrfmfffmfmfmfmffmfmm, backbone not given here) | 82.1 ± 11.8 | 6.7 ± 2.5 | 79 ± 3 | 85 ± 7.6% | 85 ± 7.6 | 12.6 ± 6.5
25449-DC: siNA duplex: sense B AGAAGAGuuucuuAAcuuA TTB (SEQ ID NO: 81), antisense UAAGuuAAGAAAcucuucuUU (SEQ ID NO: 82) (sense AGAAGAGUUUCUUAACUUATT; antisense UAAGUUAAGAAACUCUUCUUU; sense: sugars from the 5' end d7 f6 d2 f3 d3, [invAb] at 5' end, 3' end, backbone not given here; antisense: sugars from the 5' end rrrmffmmmmmmfffffffmm, backbone not given here) | 45 ± 23.2 | 10.2 ± 3.1 | 82 ± 1 | 84 ± 2.1% | 84 ± 2.1 | 52.9 ± 11.8
25438-DC: siNA duplex: sense B GAAGcAAuuuGAAAuAAuu TTB (SEQ ID NO: 59), antisense AAUuAuuucAAAuuGcuucUU (SEQ ID NO: 60) (sense GAAGCAAUUUGAAAUAAUUTT; antisense AAUUAUUUCAAAUUGCUUCUU; sense: DNA at AGT, 2'-fluoro at CU, [invAb] at 5' end, 3' end, backbone not given here; antisense: sugars from the 5' end rrrfmffffmmmffmffffmm, backbone not given here) | 51.9 ± 14.1 | 4.1 ± 1.2 | 79 ± 4 | 85 ± 6.8% | 85 ± 6.8 | 9.8 ± 12.2
25446-DC: siNA duplex: sense B cAGAAGAGuuucuuAAcuu TTB (SEQ ID NO: 75), antisense AAGuuAAGAAAcucuucuGUU (SEQ ID NO: 76) (sense CAGAAGAGUUUCUUAACUUTT; antisense AAGUUAAGAAACUCUUCUGUU; sense: DNA at AGT, 2'-fluoro at CU, [invAb] at 5' end, 3' end, backbone not given here; antisense: sugars from the 5' end r3 f2 m6 f7 m3, backbone not given here) | 64.7 ± 3.5 | 9.1 ± 2.4 | 85 ± 2 | 84 ± 3.6% | 84 ± 3.6 | −32.1 ± 18.3
25442-DC: siNA duplex: sense B GGcAAGAGAuuGcAucAuA TTB (SEQ ID NO: 67), antisense UAUGAuGcAAucucuuGccUU (SEQ ID NO: 68) (sense GGCAAGAGAUUGCAUCAUATT; antisense UAUGAUGCAAUCUCUUGCCUU; sense: DNA at AGT, 2'-fluoro at CU, [invAb] at 5' end, 3' end, backbone not given here; antisense: sugars from the 5' end rrrmmfmfmmffffffmffmm, backbone not given here) |  |  |  | 12 ± 27^ % |  | −70.9 ± 6.4
25461-DC: siNA duplex: sense B GGGcuAAcuuAcAAcuuuu TTB (SEQ ID NO: 105), antisense AAAAGuuGuAAGuuAGcccUU (SEQ ID NO: 106) (sense GGGCUAACUUACAACUUUUTT; antisense AAAAGUUGUAAGUUAGCCCUU; sense: DNA at AGT, 2'-fluoro at CU, [invAb] at 5' end, 3' end, backbone not given here; antisense: sugars from the 5' end rrrmmffmfmmmffmmfffmm, backbone not given here) |  |  |  | −48 ± 56.1% |  | −17.2 ± 3.6
25460-DC: siNA duplex: sense B GucuGAAucAAAccucACA TTB (SEQ ID NO: 103), antisense UGUGAGGuuuGAuucAGAcUU (SEQ ID NO: 104) (sense GUCUGAAUCAAACCUCACATT; antisense UGUGAGGUUUGAUUCAGACUU; sense: sugars from the 5' end dfffdddffdddffffddddd, [invAb] at 5' end, 3' end, backbone not given here; antisense: sugars from the 5' end rrrmmmmfffmmfffmmmfmm, backbone not given here) |  |  |  | −7 ± 10.7% |  | 40.8 ± 1.4

Reference: US20120022143A1, “RNA Interference Mediated Inhibition of the Thymic Stromal Lymphopoietin (TSLP) Gene Expression Using Short Interfering Nucliec Acid (siNA)” (Merck Sharp & Dohme Corp, priority 2009, published 2012)
